Measurements taken from US4816486A, “Amide derivatives and 5-lypoxygenase inhibitors containing the same” (Terumo Corporation, priority 1985, dated 1989).

Molecular target: T1, 5-lypoxygenase (Mus musculus, UniProt P48999)
T1 construct: The supernatant was used as the 5-lypoxygenase enzyme solution; endogenous in cells; host or cells: mouse mastocytoma P815 cells (supernatant of sonicated cells)
T1 sequence (P48999 1-674): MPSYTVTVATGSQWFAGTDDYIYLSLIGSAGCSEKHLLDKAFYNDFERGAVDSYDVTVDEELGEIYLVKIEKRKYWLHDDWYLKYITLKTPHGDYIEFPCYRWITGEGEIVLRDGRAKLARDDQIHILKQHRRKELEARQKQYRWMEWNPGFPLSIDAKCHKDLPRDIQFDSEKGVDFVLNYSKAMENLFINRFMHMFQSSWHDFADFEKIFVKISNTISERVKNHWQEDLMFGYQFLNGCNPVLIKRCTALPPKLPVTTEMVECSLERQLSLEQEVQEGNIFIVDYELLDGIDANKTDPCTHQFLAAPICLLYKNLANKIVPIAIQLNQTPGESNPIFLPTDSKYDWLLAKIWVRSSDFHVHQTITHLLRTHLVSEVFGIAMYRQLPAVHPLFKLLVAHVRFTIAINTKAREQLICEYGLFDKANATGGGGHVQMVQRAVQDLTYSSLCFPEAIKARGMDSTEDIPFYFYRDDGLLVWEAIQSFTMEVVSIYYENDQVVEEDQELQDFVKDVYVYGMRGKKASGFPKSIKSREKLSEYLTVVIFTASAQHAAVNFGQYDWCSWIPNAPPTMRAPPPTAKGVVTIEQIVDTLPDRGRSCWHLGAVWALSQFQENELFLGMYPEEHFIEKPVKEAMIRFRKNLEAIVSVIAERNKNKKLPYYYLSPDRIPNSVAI
Test: 5-Lypoxygenase-inhibiting activity (formation of 5-HETE and LTB4 from radiolabelled arachidonic acid, supernatant of sonicated mouse mastocytoma P815 cells)
Format: biochemical
Conditions: inhibition of formation of 5-HETE and LTB4; 37° C., 5 min; pH 7.4 phosphate buffer; P815 cell supernatant; indomethacine present; read-out: 50% inhibitory concentration IC50
Method: Mouse mastocytoma cells, strain P815 were diluted in a medium containing 90% of the Eagle basal medium (manufactured by Gibco Laboratories) to a cencentration of 5×10^4 cells/ml. The diluted liquor was subjected to shake culture in air at 37° C. for 48 hours. The culture liquor was cooled with ice and centrifuged to collect the cells. The cells were re-suspended in a phosphate buffer solution at pH 7.4 to a concentration of 2×10^7 cells/ml. The suspension was treated in an ultrasonic cell fragmenting machine and then centrifuged at […] for 10 min. The supernatant was used as the 5-lypoxygenase enzyme solution. To a test tube in which 20 μl of radiolabelled arachidonic acid (10 μ curies/ml), indomethacine ([…]) and an amide derivative of the invention to be tested were placed 0.45 ml of phosphate buffer solution, 0.45 ml of the above-prepared enzyme solution and 0.1 ml of 8 mM CaCl2 (calcium chloride) solution. The mixture was reacted at 37° C. for 5 min. […] Determination of the inhibitory activity was made by collecting the portion corresponding to 5-HBTE (5-(s)-hydroxy-6,8,11,14-eicosatetraenic acid) and LTB4 (leucotriene B4), which were 5-lypoxygenase products as detected with a radio-thin layer scanner (Dunnschicht-scanner II LB 2723 manufactured by Berthold), and measuring the radioactivity by means of a scintillation counter. […]

IC50 [nM]	SMILES
4000	COc1cc(/C=C/C(=O)Nc2c(Br)cc(Br)cc2CN(C)C2CCCCC2)ccc1O [Example 1, N-cyclohexyl-N-methyl-(2-(3-(3-methoxy-4-hydroxyphenyl)-2-propenoylamino)-3,5-dibromobenzyl)amine]
300	COc1cc(/C=C/C=C/C(=O)Nc2c(Br)cc(Br)cc2CN(C)C2CCCCC2)ccc1O [Example 2, N-cyclohexyl-N-methyl-(2-(5-(3-methoxy-4-hydroxyphenyl)2,4-pentadienoylamino)-3,5-dibromobenzyl)amine]
